Where two headings read alike, the source gives them in different places.
Legend:
OXA-57 [1] = target: T1, OXA-57 (Burkholderia pseudomallei, UniProt Q6ZZZ2)
OXA-57 [2] = target: T1, OXA-57; assay: biochemical
OXA-57 [3] = target: T1, OXA-57; assay: biochemical; details: pIC50

T1 sequence (Q6ZZZ2 24-269 limits assumed): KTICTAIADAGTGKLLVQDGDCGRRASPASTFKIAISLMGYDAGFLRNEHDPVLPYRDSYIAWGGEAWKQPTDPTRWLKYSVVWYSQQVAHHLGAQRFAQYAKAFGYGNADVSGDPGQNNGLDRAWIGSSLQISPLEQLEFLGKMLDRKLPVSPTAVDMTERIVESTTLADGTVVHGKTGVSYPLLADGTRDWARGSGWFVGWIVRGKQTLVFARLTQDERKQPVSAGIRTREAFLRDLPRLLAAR

SMILES	Ki (OXA-57 [1]) [µM]	IC50 (OXA-57 [2]) [µM]	IC50 (OXA-57 [3]) [µM]
C[C@@H](O)[C@H]1C(=O)N2C(C(=O)O)=C(S[C@@H]3CN[C@H](C(=O)N(C)C)C3)[C@H](C)[C@H]12 [Meropenem]	646 ± 355	–	–
CO/N=C(\C(=O)N[C@@H]1C(=O)N2C(C(=O)O)=C(COC(C)=O)CS[C@H]12)c1csc(N)n1 [Cefotaxime]	–	> 3980	–
CC(=O)OCC1=C(C(=O)O)N2C(=O)[C@@H](NC(=O)Cc3cccs3)[C@H]2SC1 [Cephalothin]	405 ± 97	–	–
O=C(O)C[C@@H]1CC[C@H](NC(=O)Cc2cccs2)B(O)O1 [Vaborbactam]	–	> 3980	–
C[C@H]1[C@H](NC(=O)/C(=N\OC(C)(C)C(=O)O)c2csc(N)n2)C(=O)N1S(=O)(=O)O [Aztreonam]	–	> 3980	–
C[C@@H](O)[C@H]1C(=O)N2C(C(=O)O)=C(SCCN=CN)C[C@H]12 [Imipenem]	265 ± 79	–	–
O=C(O)[C@H]1/C(=C/CO)O[C@@H]2CC(=O)N21 [Clavulanate]	–	9.4	12.6
CC(C)(O/N=C(\C(=O)N[C@@H]1C(=O)N2C(C(=O)[O-])=C(C[n+]3ccccc3)CS[C@H]12)c1csc(N)n1)C(=O)O [Ceftazidime]	–	> 3980	–

Reference: doi:10.1101/2024.12.23.630153v1 (biorxiv, 2024)
